The text below walks through data of patent US5843917A, “5-Fluorouracil derivatives” (priority 1993, dated 1998).

Each structure is given as a SMILES string. Like-named read-outs stand apart in the source and are kept apart here.

The subject of one series is DPD. Nature of the series: Protection of 5-FU from DPD catabolism by release of 5-EU from nucleosides (urinary recovery of 5-FU in rats). The format is in vivo. Conditions: rat; oral predose 0.03, 0.3 and 3.0 mg/kg, then 25 mg/kg 5-FU.
For series [1] the following is noted: literature reports; combination with 5-fluorouracil or its prodrug; cited from earlier work.
In a further series the test system is uracil reductase. Conditions: cited from earlier work.
Series [2] in a line: Urinary recovery of 5-FU in mice dosed with 5-FU or the succinate linked nucleoside. Conditions: mouse; for dose excreted: urine, po, 5 mg/kg. The format is in vivo. Here is the method: (§1) 5-FU and 5-EU bases and nucleosides were dissolved in deionized HPLC grade water immediately prior to dosing. All animals were dosed once, p.o. via gastric gavage at the indicated mg/kg dose for each compound (See Results Section and Figures). 5-EU and 5-EU nucleosides were dosed to animals 0.5 hr prior to dosing with 5-FU and 5-FU nucleosides. Dosing was routinely performed between 11 am and 1 pm. An approximate volume of 300 μL was used for each dose. Rats were placed in individual Nalge metabolism cages, which separate urine and faeces, and continued on a 12 hr light/dark schedule post-dosing. Mice were treated post-dose in a similar manner with the exception that 5 mice were housed per cage.
(§2) Urine from each cage was collected into 0-24 hr and 24-48 hr post-dose fractions. Cages were rinsed with deionized water prior to collection of each fraction. The combined volume of urine and rinse was brought to a standard volume with deionized water.
5-FU recovery in mouse urine was determined as above with three exceptions: a Phenomenex 5 μm Extrasil C-18 column (250mm×4.6 mm i.d.; Phenomenex, Torrance, Calif.) was used; an identical gradient with buffer A as aqueous 50 mM formic acid, pH 3.5, with 0.5% acetonitrile and buffer B as aqueous 50 mM formic acid, pH 3.5, with 60% acetonitrile was used; the standard curve was prepared by diluting known concentrations of 5-FU into undosed mouse urine and eluting with the latter described gradient and buffers, instead of isocratic conditions.
For these studies mice were dosed with either 5 mg/kg 5-FU or given an equivalent dose of 5-FU via the succinate linked nucleoside. The urinary recovery of 5-FU was measured in the presence and absence of 5-EU (Table 2). […] When mice were predosed with 5-EU followed by dosing with 5-FU, the urinary recovery of 5-FU was 50%. Mice dosed with the succinate linked nucleoside gave 25-30% urinary recovery of 5-FU available from the linked compound.

Series [3] can be described thus: In vivo antitumor testing with s.c. murine Colon 38 carcinoma in C57BL/6 female mice. Conditions: mouse, in vivo, sc, mice with s.c. Colon 38. Here is the method:
(§3) In vivo antitumor testing with murine Colon 38 was conducted in-house. C57BL/6 female mice were housed in sterile, polycarbonate, filter-capped Microisolator cages (Lab Products, Inc., Maywood, N.J.) containing sterile hardwood bedding. Mice were fed sterile rodent chow and filter-sterilised water ad libitum. All manipulations of these mice were conducted in laminar-flow biosafety hoods. Colon 38 carcinoma was obtained from the Development Therapeutics Program Tumour Repository. Mice were implanted s.c. with 70 mg tumour fragments using a number 13 trocar. There were 10 mice in the control group that received tumour implants without drug treatment. There were 5 mice in each group treated with the dose and compounds as described below. Treatment began on day 16 post tumour implant and compounds were dosed once/day for 9 days. 5-FU was dosed at 15, 20, 25, 30, and 40 mg/kg.. […] Tumour weights were calculated three times per week from measurements of tumour length and width. Antitumor activity was expressed as the days delay in tumour growth (T-C). T-C was calculated as the difference in the median of days for treated animals minus control animals for tumour mass to double twice post initial day of dosing (Day 16). Tumour-free survivors were not excluded from T-C calculations. Surviving mice were sacrificed after day 56.

For another series, the system named is Colon 38. The series is described as above. Here is the method:
as §3

The nature of series [4]: Urinary recovery of 5-FU in rats dosed with the succinate linked nucleoside. The class given is in vivo. Conditions: rat; 25 mg/kg 5-FU equivalent. Here is the method:
as §1
Urine from each cage was collected into 0-24 hr and 24-48 hr post-dose fractions. […]
(§4) 5 ml of a thoroughly mixed urine sample was filtered through a Millex GS 0.22 μm filter (Millipore, Bedford, Mass.) and frozen prior to HPLC analysis. […] 100 μL of this solution was quantitated for 5-FU by HPLC on a Waters Associates System (Waters Associates, Milford, Mass.) equipped with a Waters 600E system controller, a Waters 600 solvent delivery system, a Waters model 712 WISP automated sample injector, a Waters 484 tuneable absorbance detector, and a Waters 991 photodiode array detector. […]
Rats were dosed 25 mg/kg 5-FU equivalent with the succinate linked nucleosides. […] 5-FU was not detected in the 24-48 hr urine.

Series [5] is described as follows: Urinary recovery of 5-FU in rats for 5-FU and various 5-FU containing nucleosides. The class given is in vivo. Conditions: rat, urine, po, p.o., read-out: % 5-FU Recovery 0-24 hr Urine (Average of Two Experiments). Here is the method: as §1, §2
as §4, with “detector. For quantitiation of 5-FU in rat urine, HPLC was performed on a 250 mm×4.6 mm YMC AQ-303 S-5 120A ODS analytical column (YMC, Morris Plains, N.J.) or on a Microsorb C18 analytical column with identical dimensions (Rainin Instrument Co., Woburn, Mass.).” for “detector.”
Plots of UV peak area vs 5-FU concentration were linear between 5 μM and 100 μM. The total urinary recovery of 5-FU was determined by multiplication of the nmoles of 5-FU determined from the standard curve by the dilution factor of 3 (above) and by the standard volume of urine collected. […]

Description for DPD: 5-FU and 5-EU bases and nucleosides were dissolved in deionized HPLC grade water immediately prior to dosing. […] 5-EU and 5-EU nucleosides were dosed to animals 0.5 hr prior to dosing with 5-FU and 5-FU nucleosides. Dosing was routinely performed between 11 am and 1 pm. An approximate volume of 300 μL was used for each dose. Rats were placed in individual Nalge metabolism cages, which separate urine and faeces, and continued on a 12 hr light/dark schedule post-dosing.
5 ml of a thoroughly mixed urine sample was filtered through a Millex GS 0.22 μm filter (Millipore, Bedford, Mass.) and frozen prior to HPLC analysis. 1 ml of the thawed primary filtered solution was diluted with 2 ml of water and particulates were removed from this diluted stock solution using a Centrifree micro partition system (Amicon Division, W. R. Grace and Co., Beverly Mass.). […]

Turning to `C#Cc1cn([C@H]2C[C@H](O)[C@@H](COP(=O)(O)O)O2)c(=O)[nH]c1=O` [2'-deoxy-5'-monophosphate of 5-EU, 1-(2-Deoxy-β-D-Erythro-Pentofuranosyl)-5-Ethynyluracil 5'-Monophosphate], the “dose response for urinary recovery of 5-FU” value in the series with DPD was “A direct dose response for urinary recovery of 5-FU was observed”.
On to `O=c1[nH]c(=O)n([C@H]2C[C@H](O)[C@@H](CO)O2)cc1C=CBr` [5-(2-bromovinyl)-2'-deoxyuridine], for which the “effect on 5-fluorouracil metabolism and antitumour activity” value in series [1] is “enhances the antitumour activity of 5-fluorouracil and 5-deoxy-5-fluorouridine”.
For the molecule `O=c1[nH]cc(C=CBr)c(=O)[nH]1` [5-(2-bromovinyl)-uracil (BVU), 5-(2-bromovinyl)-uracil], the “inhibition of dihydrothymidine dehydrogenase” value in the series on uracil reductase (Cancer Research 46, 1094, 1986) is “is an inhibitor of dihydrothymidine dehydrogenase”. In addition, the “effect on 5-fluorouracil metabolism and antitumour activity” value in series [1] was “retards the metabolism of 5-fluorouracil and enhances its antitumour activity”.
On to `C#Cc1cn([C@H]2C[C@H](OC(=O)CCC(=O)O[C@H]3C[C@H](n4cc(F)c(=O)[nH]c4=O)O[C@@H]3CO)[C@@H](CO)O2)c(=O)[nH]c1=O` [Example 1, 5-Ethynyl-5"-fluoro-3',3"-O-succinylbis-(1-(2-deoxy-β-D-erythro-pentofuranosyl)uracil)], for which the “improvement of 5-FU urinary recovery by 5-EU predose” value in series [2] (predosed with 5-EU then succinate linked nucleoside) is on record as “no improvement”. For the same molecule, the MTD in series [3] (5-FU and 5-EU equivalents, read-out: toxic at doses, as 5-FU and 5-EU equivalents) was over 4 mg/kg; in series [3] (dose of the linked compound, once/day for 9 days, read-out: toxic at doses), over 17.9 mg/kg. In addition, the results for the “Tumour-free Survivors (Day 56)” value in the series on Colon 38 (1 mg/kg 5-FU equivalent) and in the series with Colon 38 (2 mg/kg 5-FU equivalent) were 0/5 and 2/5, respectively. Further, the “Antitumour Activity T-C” value in the series with Colon 38 (1 mg/kg 5-FU equivalent, once/day for 9 days) is 12.9 days; in the series on Colon 38 (2 mg/kg 5-FU equivalent, once/day for 9 days), over 27.9 days. Further, the “5-FU in the 24-48 hr urine” value in series [4] is “not detected”.
`C#Cc1c[nH]c(=O)[nH]c1=O` [Example 5-EU, 5-ethynyluracil]: the “potency as an inactivator of uracil reductase relative to BVU” value with uracil reductase (relative to BVU) was 100 fold.
As to `O=c1[nH]cc(F)c(=O)[nH]1` [Example 5-FU, 5-fluorouracil], the dose excreted is 50% in series [2] (5 mg/kg 5-FU, predosed with 5-EU, read-out: urinary recovery of 5-FU); 51% in series [2] (5 mg/kg equivalent 5-FU, 5-EU predose 2 mg/kg, Table 2, read-out: Recovery 5-FU (%)); 0% in series [2] (5 mg/kg equivalent 5-FU, no predose, Table 2, read-out: Recovery 5-FU (%)). For the same molecule, the “5-FU detection in the urine” value in series [2] (5 mg/kg 5-FU, without 5-EU predose) is “could not be detected”. The dose excreted at 24 h in series [5] (5 mg/kg, 5-FU 5 mg/kg, 5-EU predose 2 mg/kg) was 52%; in series [5] (5 mg/kg, 5-FU 5 mg/kg, no predose), under 5%; in series [5] (25 mg/kg, 5-FU 25 mg/kg, 5-EU predose 0.03 mg/kg), 43 to 63%. The “Tumour-free Survivors (Day 56)” value with Colon 38 (25 mg/kg 5-FU equivalent), with Colon 38 (30 mg/kg 5-FU equivalent) and with Colon 38 (40 mg/kg 5-FU equivalent) was 0/5 each time. Moreover, the “Antitumour Activity T-C” value in the series on Colon 38 (25 mg/kg 5-FU equivalent, once/day for 9 days) worked out at 14.9 days; in the series with Colon 38 (30 mg/kg 5-FU equivalent, once/day for 9 days) it was 23.6 days. For the same molecule, in the series with Colon 38 (40 mg/kg 5-FU equivalent, once/day for 9 days), the “Antitumour Activity T-C (column entry Toxic)” value is listed as “Toxic”.
For the molecule `C#Cc1cn([C@@H]2O[C@H](CO)[C@@H](O)[C@@H]2O)c(=O)[nH]c1=O` [arabinoside of 5-EU], the “dose response for urinary recovery of 5-FU” value with DPD was “A direct dose response for urinary recovery of 5-FU was observed”.
